{
  "source": "patent US20250114362A1",
  "about": "“METHODS AND COMPOSITIONS FOR TREATMENT OF CUTANEOUS PROLIFERATIVE DISORDERS AND OTHER SKIN CONDITIONS” (ASYMMETRIC THERAPEUTICS, LLC, priority 2022, published 2025)",
  "key": {"HaCaT cells": {"tested_on": "HaCaT cells", "test": "M5 cocktail psoriasis-like HaCaT keratinocyte model, live and dead cell numbers by MultiTox-Glo Multiplex Cytotoxicity Assay", "procedure": "Immortalized human keratinocytes (HaCaT cells) purchased from AddexBio (San Diego, CA) were maintained in vitro in Dulbecco's modified Eagle's medium (DMEM) supplemented with 10% Fetal Bovine Serum (FBS) and antibiotics (100 U/mL penicillin and […] streptomycin) and cultured in an incubator with 5% CO2 at 37° C.\nHaCaT cells were seeded at approximately 50% density (1×10^4 cells/well) and after 16 h the medium was replaced with 50 μL of pre-treatment medium containing different concentrations of allopurinol (0, 0.5, or 3 mM) or methotrexate (1 μM) and placed back into the incubator. Treatment media was prepared using standard media containing vehicle control (PBS) or M5 cocktail.\nOther HaCaT cells were incubated in vitro for 72 hours in the presence of a M5 composition that also included 1.0 μM methotrexate, 0.5 mM allopurinol, 3.0 mM allopurinol, 0.5 mM oxypurinol, or 3.0 mM oxypurinol.\nThe number of live and dead cells were determined by the MultiTox-Glo Multiplex Cytotoxicity Assay (Promega, Madison WI) according to the manufacturer's protocol. A dilution series of cells was used to generate a standard curve for calculation of cell number in each well. The total number of cells was the sum of the live and dead cells."}, "Ki67": {"tested_on": "Ki67", "test": "MatTek PSE culture system, Ki67 level by PCR", "type": "cell-based, human", "details": "100 nM", "procedure": "The level of Ki67 in the MatTek tissue culture system was also determined. Ki67 is a nuclear protein and a replication marker. The level of Ki67 was determined by polymerase chain reaction (PCR) analysis with standard protocols. The relative levels are normalized with respect to the measured Ki67 level of the control at Day 0, which is adjusted to 1.0.\n(§1) Other markers of cell proliferation were also measured, namely (protein p21), and four markers of inflammatory signaling (IL17A, IL23A, TNF-α, and transforming growth factor beta (TGF-β)) in the MatTek PSE culture system after two days of treatment were also determined. Ki67 is a nuclear protein and a replication marker. The marker levels were determined by isolating total RNA by a Promega SV96 Total RNA Isolation Vacuum System (Promega, Madison, WI) according to the manufacturer's instructions. The total RNA was reverse transcribed using an ABI High Capacity cDNA reverse transcription kit (Applied Biosystems, Foster City, CA). Quantitative real-time polymerase chain reaction (qPCR) was performed with the use of a SYBR Green PCR Master Mix (Applied Biosystems) according to the manufacturer's protocol and amplified on a StepOnePlus Real-Time PCR System."}, "p21": {"tested_on": "p21", "test": "MatTek PSE culture system, p21 mRNA by qPCR", "type": "cell-based, human", "details": "100 nM; after two days of treatment", "procedure": "as §1"}, "IL17A": {"tested_on": "IL17A", "test": "MatTek PSE culture system, IL17A mRNA by qPCR", "type": "cell-based, human", "details": "100 nM; after two days of treatment", "procedure": "as §1"}, "IL23A": {"tested_on": "IL23A", "test": "MatTek PSE culture system, IL23A mRNA by qPCR", "type": "cell-based, human", "details": "100 nM; after two days of treatment", "procedure": "as §1"}, "TNF-α": {"tested_on": "TNF-α", "test": "MatTek PSE culture system, TNF-α mRNA by qPCR", "type": "cell-based, human", "details": "100 nM; after two days of treatment", "procedure": "as §1"}, "TGF-β": {"tested_on": "TGF-β", "test": "MatTek PSE culture system, TGF-β mRNA by qPCR", "type": "cell-based, human", "details": "100 nM; after two days of treatment", "procedure": "as §1"}, "p21/Ki67": {"tested_on": "p21/Ki67", "test": "MatTek PSE culture system, ratio of p21 to Ki67 mRNA levels", "type": "cell-based, human", "details": "after two days of treatment; treatment compositions of Table 5", "procedure": "Ki67 is a replication marker for cells and the lower the value, the lower the replication rate. P21 is a protein which is a marker for the inhibition of cell proliferation. Thus, an increased ratio of P21/Ki67 indicates decreased cell replication. FIG. 9 illustrates this ratio under several conditions as described in Example 2.\nas §1\nTo highlight effects on cell proliferation, the ratio of p21 to Ki67 mRNA levels were calculated, with the results being shown in FIG. 9."}, "[1]": {"tested_on": "MatTek human PSE culture system (SOR-300-FT)", "test": "MatTek human PSE culture system, tissue layer thickness and histology", "details": "100 nM", "text": "The thickness of each of the three tissue layers of skin was monitored and measured after two days and after six days of exposure to the treatment medium in a blinded fashion by a board-certified and nationally respected pathologist."}, "[2]": {"details": "1.0 μM, 0 hours (baseline), M5 cocktail, ± standard deviation"}, "[3]": {"details": "1.0 μM, 0 hours (baseline), relative to 9177 live cells at zero hours"}, "[4]": {"details": "1.0 μM, 48 hours, M5 cocktail, ± standard deviation"}, "[5]": {"details": "1.0 μM, 48 hours, relative to 9177 live cells at zero hours"}, "[6]": {"details": "1.0 μM, 72 hours, M5 cocktail, ± standard deviation"}, "[7]": {"details": "1.0 μM, 72 hours, relative to 9177 live cells at zero hours"}},
  "note": "Values joined by “and” are separate entries in the source; they are usually repeats but may differ in a detail not shown here. Equal values may be shown once.",
  "data": [
    {"compound": "CN(Cc1cnc2nc(N)nc(N)c2n1)c1ccc(C(=O)N[C@@H](CCC(=O)O)C(=O)O)cc1", "note": "[methotrexate]", "values": [
      {"measurement": "Cell Counts, 0 hours, Dead", "setting": "HaCaT cells; [2]", "result": "801 ± 19"},
      {"measurement": "Cell Counts, 0 hours, Live", "setting": "HaCaT cells; [2]", "result": "9177 ± 90"},
      {"measurement": "Cell Ratios, 0 hours, Dead", "setting": "HaCaT cells; [3]", "result": 0.087},
      {"measurement": "Cell Ratios, 0 hours, Total", "setting": "HaCaT cells; [3]", "result": 1.087},
      {"measurement": "Cell Counts, 48 hours, Dead", "setting": "HaCaT cells; [4]", "result": "4826 ± 464"},
      {"measurement": "Cell Counts, 48 hours, Total", "setting": "HaCaT cells; [4]", "result": "11194 ± 545"},
      {"measurement": "Cell Ratios, 48 hours, Dead", "setting": "HaCaT cells; [5]", "result": 0.526},
      {"measurement": "Cell Ratios, 48 hours, Total", "setting": "HaCaT cells; [5]", "result": 1.220},
      {"measurement": "Cell Counts, 72 hours, Dead", "setting": "HaCaT cells; [6]", "result": "6300 ± 289"},
      {"measurement": "Cell Counts, 72 hours, Total", "setting": "HaCaT cells; [6]", "result": "11587 ± 593"},
      {"measurement": "Cell Ratios, 72 hours, Dead", "setting": "HaCaT cells; [7]", "result": "0.69 and 0.686"},
      {"measurement": "Cell Ratios, 72 hours, Total", "setting": "HaCaT cells; [7]", "result": "1.26 and 1.263"}
    ]},
    {"compound": "O=c1[nH]c(=O)c2c[nH]nc2[nH]1", "note": "[oxypurinol]", "values": [
      {"measurement": "Cell Counts, 0 hours, Live", "setting": "HaCaT cells; 0.5 mM, 0 hours (baseline), M5 cocktail, ± standard deviation", "result": "9177 ± 90"},
      {"measurement": "Cell Ratios, 0 hours, Total", "setting": "HaCaT cells; 0.5 mM, 0 hours (baseline), relative to 9177 live cells at zero hours", "result": 1.087},
      {"measurement": "Cell Counts, 48 hours, Total", "setting": "HaCaT cells; 0.5 mM, 48 hours, M5 cocktail, ± standard deviation", "result": "14960 ± 100"},
      {"measurement": "Cell Ratios, 48 hours, Total", "setting": "HaCaT cells; 0.5 mM, 48 hours, relative to 9177 live cells at zero hours", "result": 1.630},
      {"measurement": "Cell Counts, 72 hours, Total", "setting": "HaCaT cells; 0.5 mM, 72 hours, M5 cocktail, ± standard deviation", "result": "17036 ± 222"},
      {"measurement": "Cell Ratios, 72 hours, Total", "setting": "HaCaT cells; 0.5 mM, 72 hours, relative to 9177 live cells at zero hours", "result": "1.86 and 1.856"},
      {"measurement": "Cell Counts, 0 hours, Live", "setting": "HaCaT cells; 3.0 mM, 0 hours (baseline), M5 cocktail, ± standard deviation", "result": "9177 ± 90"},
      {"measurement": "Cell Ratios, 0 hours, Total", "setting": "HaCaT cells; 3.0 mM, 0 hours (baseline), relative to 9177 live cells at zero hours", "result": 1.087},
      {"measurement": "Cell Counts, 48 hours, Total", "setting": "HaCaT cells; 3.0 mM, 48 hours, M5 cocktail, ± standard deviation", "result": "13069 ± 142"},
      {"measurement": "Cell Ratios, 48 hours, Total", "setting": "HaCaT cells; 3.0 mM, 48 hours, relative to 9177 live cells at zero hours", "result": 1.424},
      {"measurement": "Cell Counts, 72 hours, Total", "setting": "HaCaT cells; 3.0 mM, 72 hours, M5 cocktail, ± standard deviation", "result": "14228 ± 282"},
      {"measurement": "Cell Ratios, 72 hours, Total", "setting": "HaCaT cells; 3.0 mM, 72 hours, relative to 9177 live cells at zero hours", "result": 1.55},
      {"measurement": "Cell Counts, 0 hours, Dead", "setting": "HaCaT cells; human, 0 h, 0.5 mM", "result": "801 ± 19"},
      {"measurement": "Cell Ratios, 0 hours, Dead", "setting": "HaCaT cells; human, 0 h, 0.5 mM", "result": 0.087},
      {"measurement": "Cell Counts, 0 hours, Dead", "setting": "HaCaT cells; human, 0 h, 3 mM", "result": "801 ± 19"},
      {"measurement": "Cell Ratios, 0 hours, Dead", "setting": "HaCaT cells; human, 0 h, 3 mM", "result": 0.087},
      {"measurement": "Cell Counts, 48 hours, Dead", "setting": "HaCaT cells; human, 48 h, 0.5 mM", "result": "2937 ± 65"},
      {"measurement": "Cell Ratios, 48 hours, Dead", "setting": "HaCaT cells; human, 48 h, 0.5 mM", "result": 0.320},
      {"measurement": "Cell Counts, 48 hours, Dead", "setting": "HaCaT cells; human, 48 h, 3 mM", "result": "2508 ± 124"},
      {"measurement": "Cell Ratios, 48 hours, Dead", "setting": "HaCaT cells; human, 48 h, 3 mM", "result": 0.273},
      {"measurement": "Cell Counts, 72 hours, Dead", "setting": "HaCaT cells; human, 72 h, 0.5 mM", "result": "4761 ± 200"},
      {"measurement": "Cell Counts, 72 hours, Dead", "setting": "HaCaT cells; human, 72 h, 3 mM", "result": "3691 ± 244"}
    ]},
    {"compound": "Vitamin D", "values": [
      {"measurement": "Relative Ki67 Level", "setting": "Ki67; Day 6, normalized to control at Day 0 = 1.0", "result": 1.99},
      {"measurement": "Relative Expression Levels, Ki67", "setting": "Ki67; after two days of treatment", "result": "0.34 ± 0.01"},
      {"measurement": "Relative Expression Levels, p21", "setting": "p21", "result": "5.10 ± 0.70"},
      {"measurement": "Relative Expression Levels, IL17A", "setting": "IL17A", "result": "0.06 ± 0.03"},
      {"measurement": "Relative Expression Levels, IL23A", "setting": "IL23A", "result": "0.45 ± 0.07"},
      {"measurement": "Relative Expression Levels, TNF-α", "setting": "TNF-α", "result": "0.48 ± 0.17"},
      {"measurement": "Relative Expression Levels, TGF-β", "setting": "TGF-β", "result": "0.35 ± 0.09"},
      {"measurement": "p21/Ki67 ratio (mRNA levels)", "setting": "p21/Ki67", "result": "markedly increased"},
      {"measurement": "Layer Thickness, Dermis", "setting": "[1]; 2 days", "result": 0.25, "unit": "mm"},
      {"measurement": "Layer Thickness, Epidermis", "setting": "[1]; 2 days", "result": 0.15, "unit": "mm"},
      {"measurement": "Layer Thickness, Stratum Corneum", "setting": "[1]; 2 days", "result": 0.05, "unit": "mm"},
      {"measurement": "Layer Thickness, Dermis", "setting": "[1]; 6 days", "result": 0.2, "unit": "mm"},
      {"measurement": "Layer Thickness, Epidermis", "setting": "[1]; 6 days", "result": 0.2, "unit": "mm"},
      {"measurement": "Layer Thickness, Stratum Corneum", "setting": "[1]; 6 days", "result": 0.2, "unit": "mm"}
    ]}
  ]
}
